Where two headings read alike, the source gives them in different places.
Legend:
[1] = Stability of stock and working solutions stored 2 weeks at 4°C; format: physicochemical
Experimental: The QC samples (n = 6) at three concentrations (low, medium, and high) were also used to assess the stabilities of all analytes. […] For the freeze/thaw cycle stability, the QC samples stored at -80°C were subjected to three freeze to thaw (at room temperature) cycles. […] The mixed analytes solution (100 ng/mL), which was obtained by diluting the stock solution stored for two weeks at 4°C, was used to evaluate the stability of stock solution. The stability of analytes working solution was also assessed by storing solutions 2 weeks at 4°C. The stabilities of stock and working solutions of ISs were determined by the same procedure as that for the analytes.

[2] = Stability of analytes in rat plasma QC samples (autosampler, room temperature, freeze/thaw, -80°C); format: in vitro ADME; conditions: for Freeze thaw cycles stability, Accuracy: three freeze (-80°C)/thaw cycles
Experimental: The QC samples (n = 6) at three concentrations (low, medium, and high) were also used to assess the stabilities of all analytes. The QC samples under autosampler condition for 24 h were determined to evaluate the autosampler 24 h stability. For the freeze/thaw cycle stability, the QC samples stored at -80°C were subjected to three freeze to thaw (at room temperature) cycles. QC samples stored at room temperature for 24 h and -80°C for 1 month were used to evaluate the short-term stability and the long-term stability. The mixed analytes solution (100 ng/mL), which was obtained by diluting the stock solution stored for two weeks at 4°C, was used to evaluate the stability of stock solution. The stability of analytes working solution was also assessed by storing solutions 2 weeks at 4°C. The stabilities of stock and working solutions of ISs were determined by the same procedure as that for the analytes.

[3] = Pharmacokinetic study in rats after oral administration of cortex periplocae extract (plasma LC-MS/MS); format: in vivo, rat; conditions: oral cortex periplocae extract 18.9 g/kg; for AUC: 0-48 h, read-out: AUC(0-tn); for MRT: read-out: MRT(0-tn)
Experimental: The pharmacokinetic study was conducted in accordance with the Guidelines for the Care and Use of Laboratory Animals and approved by the Animal Ethics Committee of Tianjin University of Traditional Chinese Medicine. […] Appropriate amount of cortex periplocae extract was suspended in 0.5% carboxymethyl cellulose sodium salt aqueous solution (CMC-Na) and the volume of oral administration was 1 mL/100g. […] The rats were anesthetized with ethyl ether before each withdrawal. […] For this repeat bleeds at short intervals, fluid replacement (appropriate volume of physiological saline) was required. The blood samples were immediately centrifuged 10 min at 7000 rpm. The obtained plasma was transferred into another centrifuge tube and stored at -80°C for analysis.
For the maximum drug concentration in plasma (Cmax) and the time to reach maximum drug concentration (Tmax), the values could be directly obtained. The other key parameters such as the area under the plasma concentration–time curve (AUC), elimination half-life (t1/2), and mean residence time (MRT) were calculated with DAS (Drug and Statistics 1.0, Medical College of Wannan, China) using non-compartmental model.

[4] = 2 weeks at 4°C, high level (1200 ng/mL isovanillin, periplocin; 240 ng/mL scopoletin, periplogenin, periplocymarin)
[5] = 2 weeks at 4°C, low level (7.2 ng/mL isovanillin, periplocin; 1.44 ng/mL scopoletin, periplogenin, periplocymarin)
[6] = 2 weeks at 4°C, medium level (120 ng/mL isovanillin, periplocin; 24 ng/mL scopoletin, periplogenin, periplocymarin)
[7] = n = 6, high level (1200 ng/mL isovanillin, periplocin; 240 ng/mL others)
[8] = n = 6, low level (7.2 ng/mL isovanillin, periplocin; 1.44 ng/mL others)
[9] = n = 6, medium level (120 ng/mL isovanillin, periplocin; 24 ng/mL others)
[10] = male Sprague-Dawley rats, plasma, n = 6, mean ± SD
[11] = rat, in vivo, male Sprague-Dawley rats, plasma, n = 6, mean ± SD
[12] = rat, male Sprague-Dawley rats, plasma, n = 6, mean ± SD
[13] = male, Sprague-Dawley, rat, in vivo, po, 18.9 g/kg, male Sprague-Dawley rats, plasma, n = 6, mean ± SD
[14] = rat, in vivo, male Sprague-Dawley rats, plasma, n = 6, mean ± SD, read-out: Cmax

| Compound | Working solution stability, Accuracy [1, 4] [%] | Working solution stability, Accuracy [1, 5] [%] | Working solution stability, Accuracy [1, 6] [%] | -80°C for 1 month stability, Accuracy [2, 7] [%] | Autosampler for 24 hours stability, Accuracy [2, 7] [%] | Room temperature for 24 h stability, Accuracy [2, 7] [%] | -80°C for 1 month stability, Accuracy [2, 8] [%] | Autosampler for 24 hours stability, Accuracy [2, 8] [%] | Room temperature for 24 h stability, Accuracy [2, 8] [%] | -80°C for 1 month stability, Accuracy [2, 9] [%] | Autosampler for 24 hours stability, Accuracy [2, 9] [%] | Room temperature for 24 h stability, Accuracy [2, 9] [%] | Freeze thaw cycles stability, Accuracy [2, 7] [%] | Freeze thaw cycles stability, Accuracy [2, 8] [%] | Freeze thaw cycles stability, Accuracy [2, 9] [%] | AUC [3, 11] [ng·h/mL] | also measured |
| --- | --- | --- | --- | --- | --- | --- | --- | --- | --- | --- | --- | --- | --- | --- | --- | --- | --- |
| O=Cc1ccc(O)c(O)c1 [protocatechuic aldehyde, reference compound] |  |  |  |  |  |  |  |  |  |  |  |  |  |  |  |  | Working solution stability of ISs, accuracy ([1]; IS working solutions, 2 weeks at 4°C): 101% |
| C[C@]12CC[C@H](O)C[C@@]1(O)CC[C@@H]1[C@@H]2CC[C@]2(C)[C@@H](C3=CC(=O)OC3)CC[C@]12O [periplogenin] | 81.5 | 111 | 99.4 | 98.7 | 104 | 101 | 109 | 108 | 92.6 | 108 | 110 | 115 | 92.8 | 116 | 112 |  |  |
| COc1cc2ccc(=O)oc2cc1O [scopoletin] |  |  |  |  |  | 103 |  |  |  |  |  |  |  |  |  | 103 ± 76.4 | Cmax [3, 10]: 177.8 ± 133.85 ng/mL; Cmax ([3]; male, Sprague-Dawley, rat, plasma, po, 18.9 g/kg, male Sprague-Dawley rats, plasma, n = 6, mean ± SD, read-out: Cmax): 178 ± 134 ng/mL; AUC(0-inf) [3, 12]: 206 ± 153 ng·h/mL; Tmax [3, 12]: 6 ± 1.8 min; half-life [3, 12]: 11.4 ± 4.8 min; MRT [3, 12]: 11.8 ± 6.6 h |
| CO[C@H]1C[C@H](O[C@H]2CC[C@]3(C)[C@H]4CC[C@]5(C)[C@@H](C6=CC(=O)OC6)CC[C@]5(O)[C@@H]4CC[C@]3(O)C2)O[C@H](C)[C@H]1O [periplocymarin] | 84.2 | 110 | 95.1 | 102 | 102 | 98.5 | 106 | 101 | 107 | 102 | 108 | 102 | 103 | 113 | 113 | 1690 ± 1170 | half-life [3, 13]: 1810 ± 710 min; Cmax ratio periplocymarin versus periplogenin ([3]; rat plasma): 9 times; AUC(0-inf) [3, 11]: 2260 ± 1280 ng·h/mL; Tmax [3, 11]: 329 ± 260 min; Cmax [3, 14]: 126 ± 96.4 ng/mL; MRT [3, 11]: 17.1 ± 2.48 h |
| COc1ccc(C=O)cc1O [isovanillin] | 85.0 | 104 | 96.1 | 99.4 | 114 | 103 | 109 | 100 | 107 | 100 | 112 | 106 | 107 | 101 | 98.6 |  | Detection in rat plasma after oral administration ([3]; LLOQ 2.4 ng/mL): not detected |
| CC(=O)CC(c1ccccc1)c1c(O)c2ccccc2oc1=O (stereo not shown) [warfarin, reference compound] |  |  |  |  |  |  |  |  |  |  |  |  |  |  |  |  | Working solution stability of ISs, accuracy ([1]; 2 weeks): 109% |
| COC1CC(OC2CCC3(C)C4CCC5(C)C(C6=CC(=O)OC6)CCC5(O)C4CCC3(O)C2)OC(C)C1OC1OC(CO)C(O)C(O)C1O (stereo not shown) [periplocin] | 94.4 | 103 | 98.9 | 92.9 | 113 | 96.4 | 115 | 113 | 111 | 115 | 109 | 116 | 113 | 93.7 | 114 | 83 ± 58.6 | t1/2 [3, 10]: 1.08 ± 0.98 h; half-life [3, 13]: 72.6 ± 66.6 min; AUC(0-inf) [3, 11]: 105 ± 70.9 ng·h/mL; Tmax [3, 11]: 18.6 ± 9.6 min; Cmax [3, 14]: 91.4 ± 53 ng/mL; MRT [3, 11]: 1.21 ± 1.11 h |
